Reference: patent publication US20220133894A1, “BISPHOSPHONATE-LINKED COMPOUNDS” (OREGON HEALTH & SCIENCE UNIVERSITY, priority 2019, published 2022)

Legend:
[1] = tested on: human prostate and breast cancer; conditions: oral administration, nanomolar concentrations; cited from earlier work
Raf1 = assay: Western blot of Raf1 phosphorylation in RANKL treated osteoclast cells; format: cell-based, mouse; conditions: 10 μM KBU2046, RANKL treated RAW 267.4 cells, time-dependent
Source text: To examine this paradigm we first evaluated whether KBU2046 would inhibit Raf1 phosphorylation in osteoclasts. After treatment with RANKL, RAW 267.4 cells differentiate into mature osteoclasts. Upon maturation osteoclast become multinucleated, express tartrate resistant acid phosphatase (TRAP), and have the capacity to form actin rings that create an occluded cavity in which bone is degraded. KBU2046 inhibits phosphorylation of Raf1's activation motif in RANKL treated RAW 267.4 osteoclast cells, and does so in a time-dependent manner (FIG. 4A). In osteoclasts Raf1 is known to phosphorylate MEK1/2, in turn phosphorylating ERK1/2 (Bradley et al., J Cell Biochem 104, 1439-1451 (2008)), with the latter acting to stimulate osteoclast differentiation and bone resorptive activity (He et al., PLoS One 6, e24780 (2011); and Nakamura et al., J Bone Miner Res 18, 1198-1205 (2003)).
FIG. 4 represents the KBU2046 inhibition of osteoclast function. FIG. 4A compares effects on Raf1 activation. […] RAW 267.4 cells were plated onto Osteo Assay plates, treated with RANKL for 6 days and with KBU2046 (or vehicle for controls) as indicated and bone surface area quantified. Data are the mean±SEM (N=3 replicates) of bone surface area, expressed as the percentage of control cells; * denotes P<0.05 compared to control. […]

LNCaP/AR-luc cells = assay: Castration resistant PCa subcutaneous implantation, tumor outgrowth; format: in vivo, mice; conditions: subcutaneous implants, 80 mg/kg KBU2046 oral, treatment from 4 weeks
Procedure: To complete our assessments of the androgen related paradigm, the effect of KBU2046 on resistance to hormone therapy was evaluated. The outgrowth of LNCaP/AR-luc cells in castrate mice is routinely utilized as a model to emulate the transition to a castration resistant phenotype (Tran et al., Science 324, 787-790 (2009)). In this model, tumor outgrowth is detectable ˜8 weeks post implantation, and growth kinetics are typically monitored until 16 weeks post implantation. […]
LNCaP or VCaP cells cultured in hormone free media were treated with R1881 (R), KBU2046 (46) and/or enzalutamide (E). […] PSA expression was measured by qRT/PCR, normalized to GAPDH and expressed as a percent of control cells (N=3 replicates); * denotes P<0.05 for groups separated by bar. […] Data are the number of viable cells, expressed as % of control (N=3 replicates); * P<0.05 compared to control. […] Data are tumor size, expressed as luminescence intensity. All data are expressed as mean±SEM.
Castration resistant PCa subcutaneous implantation: 6-7 week old male athymic mice received trans-scrotal bilateral orchiectomy with a single incision in the midline of scrotums under general anesthesia and then allowed to recover for 10 days. […] Twice weekly tumor measurements were performed and androgen receptor activity monitored biweekly through IVIS imaging.

O=C1c2ccccc2OCC1c1ccc(F)cc1 (centres unmarked) [KBU2046, 3-(4-fluorophenyl)chroman-4-one]
bone destruction [1]: decreases | metastasis [1]: inhibits | survival [1]: prolongs | phosphorylation of Raf1's activation motif (Raf1): inhibits | tumor growth (outgrowth in castrate mice) (LNCaP/AR-luc cells): did not alter
